Test results from US8497371B2, “Pipemidic acid derivative autotaxin inhibitors” (University of Memphis Research Foundation, priority 2009, dated 2013).
Entries after “also recorded” stand apart in the source; their conditions may differ. Like-named read-outs stand apart in the source and are kept apart here.

Columns and labels:
ATX [1] = target: T1, ATX (Homo sapiens, UniProt Q13822); assay: biochemical
ATX [2] = target: T1, ATX; conditions: for Inhibition Mechanism: FS-3 substrate
ATX [3] = target: T1, ATX; assay: ATX inhibition assay with FS-3 substrate; format: biochemical; set-up: conditioned serum-free medium (CCM) from MDA-MB-435 cells as the source of ATX; endogenous in cells; host or cells: MDA-MB-435 cells (about 10x concentrated serum-free conditioned medium); conditions: for % Response at 10 μM (FS-3): FS-3 hydrolysis normalized to vehicle control (low = strong inhibition), mean ± S.D.; for single dose response comparison by aromatic substituent and position: Table 2, same values as % Response at 10 μM; for inhibition at 10 µM: single dose 10 μM, % inhibition, read-out: inhibition of ATX-mediated hydrolysis of FS-3
Method: ATX inhibition was assayed using the substrate FS-3 (Echelon Biosciences, Inc., Salt Lake City, Utah, USA). The FS-3 assay used ˜10 times concentrated conditioned serum-free medium (CCM) from MDA-MB-435 cells as the source of ATX, while CCM comprised one-third of the total volume.
All assays were performed in 96-well plates with data read at 1 minute intervals by a Synergy2 system (BioTek, Winooski, Vt.). […] Results are shown at one hour, at which point all fluorescence and absorbance changes as a function of time were linear. All readings were normalized to vehicle control after subtraction of fluorescence in the absence of CCM. Data are shown as the mean±S.D. of at least three wells. All experiments were repeated at least twice and results are shown.

ATX [4] = target: T1, ATX; set-up: conditioned serum-free medium (CCM) from MDA-MB-435 cells as the source of ATX; endogenous in cells; host or cells: MDA-MB-435 cells (about 10x concentrated serum-free conditioned medium); conditions: 10 μM compound, 1 μM FS-3; earlier screen; cited from earlier work
A2058 cells = assay: A2058 cell migration (scratch closure); format: cell-based; conditions: 30 μM inhibitor, 48 hours; for ATX-stimulated cell migration: ATX 100 ng/ml; for LPC+ATX-stimulated cell migration: LPC 18:1 10 μM + ATX 100 ng/ml; for LPC-stimulated cell migration: LPC 18:1 10 μM
Method: A2058 cells were seeded in 96-well plates at a density of 50,000 cells per well in complete growth medium (DMEM+10% FBS+penicillin/streptomycin+L-glutamine). Cells were allowed to equilibrate for 24 hours at 37° C. with 5% CO2. Cells were then serum-deprived for 24 hours in DMEM+0.1% BSA+penicillin/streptomycin+L-glutamine (serum-free medium). […] The width of the injury was measured at T0, 4 hours (data not shown), 24 hours (data not shown), and 48 hours (shown above) after injury/treatment using the 10× objective of the phase-contrast microscope and the Micron USB software package. Data represent mean percent closure±SD. n=3 for each experiment. […] However, these reductions were also not statistically significant.

human NPP6 = target: T2, human NPP6 (Homo sapiens, UniProt Q6UWR7); assay: Determination of NPP6 inhibition (pNPPC substrate); format: biochemical; conditions: 10 μM inhibitor
T2 construct: transfected with human NPP6ex^51 or human NPP7ex expression plasmids; made in house; host or cells: HEK293 cells, transient transfection, pcDNA3.1(+); unconcentrated conditioned medium (CM)
T2 sequence (Q6UWR7 23-419 limits assumed): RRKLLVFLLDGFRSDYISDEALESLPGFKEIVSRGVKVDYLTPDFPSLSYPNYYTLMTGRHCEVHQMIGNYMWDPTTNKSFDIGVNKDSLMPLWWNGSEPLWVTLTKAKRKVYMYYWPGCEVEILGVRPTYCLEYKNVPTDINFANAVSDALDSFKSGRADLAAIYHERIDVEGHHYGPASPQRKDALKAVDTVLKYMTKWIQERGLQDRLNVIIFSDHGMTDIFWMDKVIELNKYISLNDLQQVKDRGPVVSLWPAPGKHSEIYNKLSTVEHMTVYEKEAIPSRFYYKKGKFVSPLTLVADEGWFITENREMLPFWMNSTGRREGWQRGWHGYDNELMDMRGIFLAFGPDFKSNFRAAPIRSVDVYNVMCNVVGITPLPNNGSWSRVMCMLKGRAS
Method: (§1) Inhibitor selectivity was assayed using p-nitrophenylphosphoryl-choline (pNPPC) (Sigma-Aldrich, St. Louis, Mo.) as substrate for NPP6 and NPP7. The final volume (60 μL) included 20 μL (CM, NPP6 or CCM, NPP7, 20 μL inhibitor (10 μM including 1% DMSO) in assay buffer, and 20 μL pNPPC (10 mM, NPP6 or 1 NPP7) in assay buffer. NPP6 assay buffer contained 500 mM NaCl, 0.05% Triton X-100, 100 mM Tris-HCl (pH 9.0), whereas NPP7 assay buffer was comprised of 50 mM Tris HCl, pH 8.5, 150 mM NaCl, and 10 mM taurocholic acid. However, unlike the published methods, EDTA was not added to the NPP7 assay buffer. All assays were performed in 96-well, half area plates (Corning Inc., Lowell, Mass.) at 37° C. with data collected at 2 minute intervals using a Synergy2 absorbance plate reader (BioTek, Winooski, Vt.). Results are shown at the one hour time point, when all absorbance changes as a function of time were linear. Readings were normalized to vehicle control after subtraction of absorbance in the absence of CM or CCM. Data are shown as the mean±S.D. of at least three wells. All experiments were repeated twice and representative results are shown.
(§2) Assays were performed with CM or CCM from HEK293 cells transiently transfected with NPP6 and 7 expression plasmids, respectively. HEK293 cells were seeded in Dulbecco's modified Eagle's medium (DMEM) containing 10% fetal bovine serum, 100 U/ml penicillin, 100 μg/ml streptomycin (Hyclone, Logan, Utah), and 2 mM L-glutamine. HEK293 cells were grown overnight at 37° C. under 5% CO2 to 80% confluence. The cells were then transfected with human NPP6ex^51 or human NPP7ex expression plasmids in the pcDNA3.1(+) mammalian vector in the presence of Polyfect Transfection Reagent (Hyclone, Logan, Utah). Six hours after transfection, the culture medium was changed to serum free DMEM containing L-glutamine and cells were incubated for 48 hours. Expressed protein was collected (NPP6 and NPP7) and concentrated ˜10×(NPP7) using 10 kDa molecular weight cutoff filters (Millipore, Beverly, Mass.) in an Amicon pressure cell (Millipore, Beverly, Mass.).

human NPP7 = target: T3, human NPP7 (Homo sapiens, UniProt Q6UWV6); assay: Determination of NPP7 inhibition (pNPPC substrate); format: biochemical; conditions: 10 μM inhibitor
T3 construct: transfected with human NPP6ex^51 or human NPP7ex expression plasmids; made in house; host or cells: HEK293 cells, transient transfection, pcDNA3.1(+); conditioned medium concentrated about 10x (CCM)
T3 sequence (Q6UWV6 22-433 limits assumed): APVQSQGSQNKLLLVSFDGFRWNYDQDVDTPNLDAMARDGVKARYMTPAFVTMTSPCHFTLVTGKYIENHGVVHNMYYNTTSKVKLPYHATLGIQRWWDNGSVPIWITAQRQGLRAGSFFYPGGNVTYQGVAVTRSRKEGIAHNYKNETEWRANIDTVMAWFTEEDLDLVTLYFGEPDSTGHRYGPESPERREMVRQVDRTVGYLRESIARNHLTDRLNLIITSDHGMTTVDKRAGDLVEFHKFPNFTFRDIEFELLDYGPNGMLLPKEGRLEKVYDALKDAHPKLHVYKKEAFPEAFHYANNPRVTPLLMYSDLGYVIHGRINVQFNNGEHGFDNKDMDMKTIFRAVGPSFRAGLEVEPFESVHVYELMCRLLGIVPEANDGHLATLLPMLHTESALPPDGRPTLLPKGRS
Method: as §1, §2

ATX [5] = target: T1, ATX; set-up: conditioned serum-free medium (CCM) from MDA-MB-435 cells as the source of ATX; endogenous in cells; host or cells: MDA-MB-435 cells (about 10x concentrated serum-free conditioned medium); conditions: cited from earlier work
[6] = Ki (μM), FS-3 substrate, for mixed mode Ki=IC50 assumed

In the case of `CCn1cc(C(=O)O)c(=O)c2cnc(N3CCN(C(=S)Nc4cc(Cl)cc(Cl)c4)CC3)nc21` [Compound 1], the Ki (ATX [1]; Ki) is reported as 1.6 µM, the “mechanism of ATX inhibition” value (ATX [2]) is reported as “mixed-mode” and the “Inhibition Mechanism” value (ATX [2]) is reported as “Mixed”. For the same molecule, the “block of ATX-mediated hydrolysis of FS-3” value (ATX [3]; 10 μM compound, FS-3 1 μM) was “completely blocked”, the “% Response at 10 μM (FS-3)” value (ATX [3]; 10 μM compound) was 0.0 ± 4.0% and the IC50 (ATX [3]; ATX-mediated FS-3 hydrolysis) was 1.6 ± 0.4 µM. For the same molecule, the “inhibition of ATX-catalyzed hydrolysis of FS-3, initial single concentration screen” value (ATX [4]) was “fully inhibited”, the ATX-stimulated cell migration (A2058 cells) was “significantly inhibited” and the “LPC+ATX-stimulated cell migration” value (A2058 cells) was “significantly inhibited; also recorded: statistically significant inhibition”. The LPC-stimulated cell migration (A2058 cells) was “the reduction was not statistically significant”.
With `CCn1cc(C(=O)O)c(=O)c2cnc(N3CCN(C(=S)Nc4cccc(Cl)c4)CC3)nc21` [Compound 14, 2-(4-{[(3-chlorophenyl)amino]carbonothioyl}-1-piperazinyl)-8-ethyl-5-oxo-5,8-dihydropyrido[2,3-d]pyrimidine-6-carboxylic acid] the “mechanism of ATX inhibition” value (ATX [2]) was “mixed-mode”, the “Inhibition Mechanism” value (ATX [2]) was “Mixed” and the “% Response at 10 μM (FS-3)” value (ATX [3]; 10 μM compound) was 9.7 ± 0.9%. For the same molecule, the “single dose response comparison by aromatic substituent and position” value (from here on “single dose response comparison”) (ATX [3]) was 9.7 ± 0.9, the inhibition at 10 µM (ATX [3]) was ≥ 50% and the “effect on activity of NPP6” value (human NPP6) was “None of the compounds affected the activity”. The “effect on activity of NPP7” value (human NPP7) was “None of the compounds affected the activity”, the ATX-stimulated cell migration (A2058 cells) was “appeared to decrease” and the “LPC+ATX-stimulated cell migration” value (A2058 cells) was “appeared to decrease”. For the same molecule, the LPC-stimulated cell migration (A2058 cells) was “appeared to decrease”.
In the case of `CCn1cc(C(=O)O)c(=O)c2cnc(N3CCN(C(=S)Nc4cc(Cl)ccc4Cl)CC3)nc21` [Compound 20, 2-(4-{[(2,5-dichlorophenyl)amino]carbonothioyl}-1-piperazinyl)-8-ethyl-5-oxo-5,8-dihydropyrido[2,3-d]pyrimidine-6-carboxylic acid], the “effect on activity of NPP6” value (human NPP6) is reported as “None of the compounds affected the activity”, the “effect on activity of NPP7” value (human NPP7) is reported as “None of the compounds affected the activity” and the ATX-stimulated cell migration (A2058 cells) is reported as “appeared to decrease”. For the same molecule, the “LPC+ATX-stimulated cell migration” value (A2058 cells) was “appeared to decrease” and the LPC-stimulated cell migration (A2058 cells) was “appeared to decrease”.
In the case of `CCn1cc(C(=O)O)c(=O)c2cnc(N3CCN(C(=S)Nc4cc(C)cc(C)c4)CC3)nc21` [Compound 22, 2-(4-{[(3,5-dimethylphenyl)amino]carbonothioyl}-1-piperazinyl)-8-ethyl-5-oxo-5,8-dihydropyrido[2,3-d]pyrimidine-6-carboxylic acid], the Ki (ATX [1]; Ki) is reported as 1.7 to 13.5 µM, the Ki (ATX [1]; [6]) is reported as 9 µM and the “mechanism of ATX inhibition” value (ATX [2]) is reported as “mixed-mode”. For the same molecule, the “potency relative to the lead compound” value (ATX [2]) was “as potent as or significantly less potent than the lead”, the “Inhibition Mechanism” value (ATX [2]) was “Mixed” and the “% Response at 10 μM (FS-3)” value (ATX [3]; 10 μM compound) was 30.4 ± 1.3%. The IC50 (ATX [3]; FS-3 substrate) was 9 µM, the inhibition at 10 µM (ATX [3]) was ≥ 50% and the “effect on activity of NPP6” value (human NPP6) was “None of the compounds affected the activity”. For the same molecule, the “effect on activity of NPP7” value (human NPP7) was “None of the compounds affected the activity”.
For `CCn1cc(C(=O)O)c(=O)c2cnc(N3CCN(C(=S)Nc4ccc(Cl)cc4)CC3)nc21` [Compound 28, 2-(4-{[(4-chlorophenyl)amino]carbonothioyl}-1-piperazinyl)-8-ethyl-5-oxo-5,8-dihydropyrido[2,3-d]pyrimidine-6-carboxylic acid], the Ki (ATX [1]; Ki) was 1.7 to 13.5 µM, the Ki (ATX [1]; [6]) was 10.7 µM and the “mechanism of ATX inhibition” value (ATX [2]) was “mixed-mode”. The “potency relative to the lead compound” value (ATX [2]) was “as potent as or significantly less potent than the lead”, the “Inhibition Mechanism” value (ATX [2]) was “Mixed” and the “% Response at 10 μM (FS-3)” value (ATX [3]; 10 μM compound) was 42.4 ± 0.9%. The IC50 (ATX [3]; FS-3 substrate) was 10.7 µM, the “single dose response comparison” value (ATX [3]) was 42.4 ± 0.9 and the inhibition at 10 µM (ATX [3]) was ≥ 50%. For the same molecule, the “effect on activity of NPP6” value (human NPP6) was “None of the compounds affected the activity” and the “effect on activity of NPP7” value (human NPP7) was “None of the compounds affected the activity”.
For `CCn1cc(C(=O)O)c(=O)c2cnc(N3CCN(C(=S)Nc4ccc(C(F)(F)F)cc4)CC3)nc21` [Compound 31, 2-(4-{[(4-trifluoromethylphenyl)amino]carbonothioyl}-1-piperazinyl)-8-ethyl-5-oxo-5,8-dihydropyrido[2,3-d]pyrimidine-6-carboxylic acid], the Ki (ATX [1]; [6]) was 1.4 µM, the “mechanism of ATX inhibition” value (ATX [2]) was “uncompetitive” and the “potency relative to the lead compound” value (ATX [2]) was “at least as potent as the lead compound; also recorded: approximately equivalent to the lead”. For the same molecule, the “Inhibition Mechanism” value (ATX [2]) was “Uncompetitive”, the “% Response at 10 μM (FS-3)” value (ATX [3]; 10 μM compound) was 36.2 ± 0.9% and the IC50 (ATX [3]; FS-3 substrate) was 1.5 µM. The IC50 (ATX [3]; Substrate FS-3 (1 μM)) was 1.5 µM, the “single dose response comparison” value (ATX [3]) was 36.2 ± 0.9 and the inhibition at 10 µM (ATX [3]) was ≥ 50%. The “effect on activity of NPP6” value (human NPP6) was “None of the compounds affected the activity” and the “effect on activity of NPP7” value (human NPP7) was “None of the compounds affected the activity”.
In the case of `CCCCCCCCCCCCC/C=C/[C@@H](O)[C@@H](N)COP(=O)(O)O` [Compound S1P, sphingosine 1-phosphate], the “mechanism of inhibition (reported)” value (ATX [5]) is given as “mixed-mode”.
For `CCCCCCCCc1ccc(CCC(N)(CO)COP(=O)(O)O)cc1` (stereo not shown) [FTY720-phosphate], the “mechanism of inhibition (reported)” value (ATX [5]) is given as “competitive” and the Ki (ATX [5]; read-out: Ki (reported)) is given as 0.2 µM.
For `N[C@@H](Cc1c[nH]cn1)C(=O)O` [L-histidine], the “mechanism of inhibition (reported)” value (ATX [5]) is listed as “non-competitive”.
